According to publication PMC9698716, “From Serendipity to Rational Identification of the 5,6,7,8-Tetrahydrobenzo[4,5]thieno[2,3-d]pyrimidin-4(3H)-one Core as a New Chemotype of AKT1 Inhibitors for Acute Myeloid Leukemia” (Pharmaceutics, 2022):
Read-outs that look alike come from different tables or passages of the source.

Tests used:
OCI-AML2 = experiment: CellTiter Blue cell viability assay; type: cell-based, human; details: OCI-AML2, 48 h, read-out: cellular IC50
Source text: (§1) The human AML cell lines, OCI-AML3 (carrying the NPM1 gene mutation A and the DNMT3A^R882C mutation), IMS-M2 (carrying the NPM1 gene mutation A), OCI-AML2 (with the wild-type NPM1 and DNMT3A^R635W mutation), and SKM-1 and MOLM-13 (with the wild-type NPM1) were previously reported. The cell lines were purchased from the Deutsche Sammelung von Mikroorganismen und Zellkulturen (DSMZ) (Braunschweig, Germany) cell bank and maintained according to the vendors’ instructions. Briefly, cultured cells were split every 3 days and maintained in an exponential growth phase. The cell lines were tested for mycoplasma using the Universal Mycoplasma Detection Kit (ATCC). The OCI-AML3 were grown in α-MEM supplemented with 20% fetal bovine serum, 100 U/mL penicillin, and 100 μg/mL streptomycin (P/S), and all other cell lines were cultured in RPMI and supplemented with a 10–20% fetal bovine serum and 100 U/mL penicillin and 100 μg/mL streptomycin. The cells were kept at 37 °C in a 5% CO2 incubator. Prior to screening, the appropriate cell concentration for all cell lines was determined. For the cell lines’ treatments, cells were maintained as follows: OCI-AML3 at 0.25 × 10^6/mL, OCI-AML2 and IMS-M2 at 0.35 × 10^6/mL, and SKM-1 and MOLM-13 at 0.5 × 10^6/mL. The compounds were re-suspended at 10 mM stock in DMSO. Further dilutions were performed in phosphate-buffer-saline (PBS) for pharmacological experiments. The cells were exposed to compounds at different concentrations for the indicated time points and sampled as described below. Briefly, the cells (4 × 10^5/mL) were seeded in 384-well plate and treated for 48 h with various concentrations (0.001 μM to 100 μM) of either one of the compounds, T101, T126, and T159, or NSC348884, as a positive control. Each plate included DMSO at 0.1% as a negative control. The metabolic cell activity was measured by using the CellTiter Blue proliferation agent (Roche) as described in the manufacturer’s procedure. Briefly, CellTiter Blue solution (Resazaurin) was added to each well and the plates were incubated at 37 °C with 5% CO2 for 4 h. During the incubation time, the resazurin is reduced to fluorescent resorufin in metabolically and proliferating living cells. The fluorescence intensity was measured using the automated Tecan plate reader (Tecan Group Ltd., Männedorf, Switzerland) at an excitation/emission wavelength of 531/572 nm. The fluorescence readouts were reported as relative fluorescence units (RFU) and read on a luminescence plate reader (Infinite 200 Pro, Tecan, CA, USA). The dose response curves ([…] (IC50)) were obtained by non-linear regression analysis using the GraphPad Prism 5.0 program. The concentration is shown as a logarithmic function. All the experiments were performed at least in triplicate, with technical repetition. The results are expressed as mean ± standard error of the mean (SEM). For the Colony Forming Unit (CFU) assay, 10 × 10^6 CD34+ human hematopoietic progenitors were received from unique healthy donors, upon signed informed consent, and were cultured in SFEM II (Serum-free medium) and P/S at a density of 1 × 10^6/mL with cytokines that are important for cell division and self-renewal: fms-like tyrosine kinase 3 (FLT3)-ligand, FLT3L (100 ng/mL), Stem Cell Factor, SCF (100 ng/mL) and Trombopoietin, and TPO (50 ng/mL) for 48 h before plating them on a Methocult medium.

OCI-AML3 = experiment: CellTiter Blue cell viability assay; type: cell-based, human; details: OCI-AML3, 48 h, read-out: cellular IC50
Source text: as §1

IMS-M2 = experiment: CellTiter Blue cell viability assay; type: cell-based, human; details: IMS-M2, 48 h, read-out: cellular IC50
Source text: as §1

MOLM-13 = experiment: CellTiter Blue cell viability assay; type: cell-based, human; details: MOLM-13, 48 h, read-out: cellular IC50
Source text: as §1

SKM-1 = experiment: CellTiter Blue cell viability assay; type: cell-based, human; details: SKM-1, 48 h, read-out: cellular IC50
Source text: as §1

AKT1 [1] = molecular target: T1, AKT1 (Homo sapiens, UniProt P31749); experiment: AKT1 enzymatic inhibition assay; type: biochemical; details: for Ligand efficiency (LE = 1.4 pIC50/N): from AKT1 IC50, N = heavy atoms; for Ki: read-out: Ki (AKT1 inhibition constant)
T1 construct: purchased Kinase Logistics, Meyn, Germany #Aps 01-101
T1 sequence (P31749 whole entry): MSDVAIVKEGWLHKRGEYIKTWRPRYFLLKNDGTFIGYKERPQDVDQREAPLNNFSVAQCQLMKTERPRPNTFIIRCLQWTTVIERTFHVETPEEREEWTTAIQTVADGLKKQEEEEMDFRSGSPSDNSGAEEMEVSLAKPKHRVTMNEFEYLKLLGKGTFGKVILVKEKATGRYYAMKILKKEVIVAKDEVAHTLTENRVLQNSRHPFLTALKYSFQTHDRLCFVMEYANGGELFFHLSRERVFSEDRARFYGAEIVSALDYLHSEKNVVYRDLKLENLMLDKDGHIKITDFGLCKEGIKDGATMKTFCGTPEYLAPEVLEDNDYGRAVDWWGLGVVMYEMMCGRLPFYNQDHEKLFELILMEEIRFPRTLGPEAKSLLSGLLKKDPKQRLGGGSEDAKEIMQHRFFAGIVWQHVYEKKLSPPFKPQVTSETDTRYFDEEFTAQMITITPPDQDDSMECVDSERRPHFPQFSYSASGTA
Protocol: The studied compounds, including the standard inhibitor Staurosporine (Thermo-Fisher , Madrid, Spain, Invitrogen BP2541), were incubated with 3 nM AKT1 (#Aps 01-101; Kinase Logistics, Meyn, Germany) and 1.5 μM Profiler Pro peptide 6 (#760350; Perkin Elmer, Tres Cantos, Madrid, Spain) in the presence of different concentrations of Adenosine 5′triphosphate disodium salt, ATP (#A2383; Sigma Aldrich, Madrid, Spain) in a 384-well Microplate (#781076; Greiner, San Sebastián de los Reyes, Madrid, Spain). The reaction rate was calculated from kinetic measurements carried out measured in a Caliper EzReader LabChip 3000 (Caliper, Hopkinton, MA, USA) reader with samples taken each 10 min for a total time of 60 min. The percentage of substrate conversion rate was plotted versus the ATP concentration. The data was analyzed by non-linear fitting with GraphPad Prism by employing the Michaelis–Menten equation. The buffer assay used in the inhibition hAKT1 assay is: Hepes 100 mM, DMSO 4%, Brij 0.003%, Tween 20 0.004%, MgCl2 10 mM, with a pH = 7.5.
The Ki values were calculated by employing the GraphPad Prism equations.

p38 MAPK = experiment: activity against p38 MAPK (originally desired target); type: biochemical
AKT1 [2] = test system: AKT1; set-up: method as in PMID 33995085; details: ref [51]; cited from earlier work
AKT3 = test system: AKT3; set-up: method as in PMID 33995085; details: ref [51]; cited from earlier work
[3] = 10 μM compound, read-out: %inh (percentage of inhibition of AKT1 activity)

For `Cc1ccc2nc(CN(CCN(Cc3nc4ccc(C)cc4[nH]3)Cc3nc4ccc(C)cc4[nH]3)Cc3nc4ccc(C)cc4[nH]3)[nH]c2c1` [NSC348884, reference compound], the IC50 (OCI-AML2) was 5.6 µM, the IC50 (OCI-AML3) was 6.6 µM and the IC50 (IMS-M2) was 7.6 µM. The IC50 (MOLM-13) was 3.4 µM and the IC50 (SKM-1) was 2.1 µM.

For `Cc1cc(-c2ccccc2)nc2nc(NC(=O)c3ccc(O)c(O)c3)nn12` [T101], the IC50 (AKT1 [1]) was 1.62 ± 0.15 µM, the inhibition at 10 µM (AKT1 [1]; [3]) was 95% and the “Ligand efficiency (LE = 1.4 pIC50/N)” value (AKT1 [1]) was 0.29 kcal mol^−1 N^−1. It also gave a Ki (AKT1 [1]) of 0.24 µM, an IC50 (OCI-AML2; Homo sapiens) of over 30 µM and an IC50 (OCI-AML3; Homo sapiens, OCI-AML-3) of over 30 µM. The IC50 (IMS-M2; Homo sapiens) was over 30 µM, the IC50 (MOLM-13; Homo sapiens) was over 30 µM and the IC50 (SKM-1; Homo sapiens) was over 30 µM.

With `O=c1[nH]c(-c2ccc(O)c(O)c2)nc2sc3c(c12)CCCCC3` [T124] the IC50 (AKT1 [1]) was 30.9 µM, the “potency against AKT1 (in words)” value (AKT1 [1]) was “moderately active” and the “%inh (percentage of inhibition of AKT1 activity)” value (AKT1 [1]; 10 μM compound, 10 µM) was 60%. The inhibition at 10 µM (AKT1 [1]; [3]) was over 60% and the “Ligand efficiency (LE = 1.4 pIC50/N)” value (AKT1 [1]) was 0.27 kcal mol^−1 N^−1.

With `O=c1[nH]c(-c2ccc(O)c(O)c2)nc2sc3c(c12)CCC3` [T128] the IC50 (AKT1 [1]) was 26.6 ± 4.8 µM, the “potency against AKT1 (in words)” value (AKT1 [1]) was “moderately active” and the inhibition at 10 µM (AKT1 [1]; [3]) was 78%. For the same compound, the “Ligand efficiency (LE = 1.4 pIC50/N)” value (AKT1 [1]) was 0.30 kcal mol^−1 N^−1.

With `NC(=O)c1c(NC(=O)c2ccc(O)c(O)c2)sc2c1CCCCC2` [T159] the IC50 (AKT1 [1]) was 2.12 ± 0.26 µM, the inhibition at 10 µM (AKT1 [1]; [3]) was 94% and the Ki (AKT1 [1]) was 1.91 µM. It also gave an IC50 (OCI-AML2; Homo sapiens) of over 30 µM, an IC50 (OCI-AML3; Homo sapiens, OCI-AML-3) of over 30 µM and an IC50 (IMS-M2; Homo sapiens) of over 30 µM. It also gave an IC50 (MOLM-13; Homo sapiens) of over 30 µM and an IC50 (SKM-1; Homo sapiens) of over 30 µM.

`NC(=O)c1c(NC(=O)c2ccc(F)cc2F)sc2c1CCCCC2` [T187, 2-(2,4-Difluorobenzamido)-5,6,7,8-tetrahydro-4H-cyclohepta[b]thiophene-3-carboxamide] showed an IC50 (AKT1 [1]) of 11.4 ± 2.8 µM, an inhibition at 10 µM (AKT1 [1]; [3]) of 56% and an inhibition at 50 µM (AKT1 [1]; 50 μM compound solution (footnote b of Table S2), read-out: %inh (percentage of inhibition of AKT1 activity)) of 56%. For the same compound, the “Ligand efficiency (LE = 1.4 pIC50/N)” value (AKT1 [1]) was 0.28 kcal mol^−1 N^−1, the Ki (AKT1 [1]) was 4.19 ± 1.36 µM and the “activity against p38 MAPK” value (p38 MAPK) was “inactive”.

For `CC(C)NC[C@@H](C(=O)N1CCN(c2ncnc3c2[C@H](C)C[C@H]3O)CC1)c1ccc(Cl)cc1` [ipatasertib], the IC50 (AKT3) is listed as […] and the IC50 (AKT1 [2]) is listed as […].
